Measurements reported in patent US7307102B2, “Method of preventing or treating estrogen-dependent diseases and disorders” (Duke University, priority 1997, dated 2007).

Molecular target: T1, wild-type human estrogen receptor (ERwt) (Homo sapiens, UniProt P03372)
T1 construct: expressed in transfected cells; host or cells: HepG2
T1 sequence (P03372 1-595): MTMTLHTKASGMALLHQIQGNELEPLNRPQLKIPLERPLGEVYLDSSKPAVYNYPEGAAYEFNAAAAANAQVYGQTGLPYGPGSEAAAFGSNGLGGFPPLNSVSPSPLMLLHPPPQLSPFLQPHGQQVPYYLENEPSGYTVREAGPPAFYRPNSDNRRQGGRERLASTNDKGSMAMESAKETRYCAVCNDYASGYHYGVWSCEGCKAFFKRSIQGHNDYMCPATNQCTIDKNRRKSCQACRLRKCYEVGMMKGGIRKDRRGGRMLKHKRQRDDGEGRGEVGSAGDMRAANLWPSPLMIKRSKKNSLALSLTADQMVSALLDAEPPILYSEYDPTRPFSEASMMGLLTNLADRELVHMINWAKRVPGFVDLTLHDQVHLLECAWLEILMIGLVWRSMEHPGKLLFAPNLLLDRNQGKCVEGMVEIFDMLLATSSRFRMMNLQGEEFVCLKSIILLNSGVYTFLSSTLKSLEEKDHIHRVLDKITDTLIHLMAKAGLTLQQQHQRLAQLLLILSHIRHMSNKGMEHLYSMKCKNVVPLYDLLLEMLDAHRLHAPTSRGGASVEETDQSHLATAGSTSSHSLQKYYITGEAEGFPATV
Experiment: C3 promoter-luciferase cotransfection assay in HepG2 cells, ERwt
Assay type: cell-based
Excerpt: FIGS. 1A and 1B. […] The human C3 promoter (−1807 to +58) fused to the firefly luciferase reporter gene was transfected along with an expression plasmid containing (FIG. 1A) the wild-type human estrogen receptor (ERwt), or (FIG. 1B) a mutated ER in which the AF-2 function had been disrupted (ER-TAFl) into HepG2 cells and tested for transcriptional activation in the presence of increasing concentrations of ER-modulator as indicated. Transfections were normalized for efficiency and cell number by cotransfecting an expression plasmid containing β-galactosidase. The normalized response was obtained by dividing light units by the activity of β-galactosidase as measured in an enzymatic assay. Triplicate transfections were performed. The data shown are representative of multiple experiments performed under similar conditions.
FIGS. 2A-2C. […] FIG. 2A. […] FIG. 2B. […] FIG. 2C. […] Transfections were normalized for efficiency and cell number by cotransfecting an expression plasmid containing β-galactosidase. The normalized response was obtained by dividing light units by the activity of β-galactosidase as measured in an enzymatic assay. Representative assays are shown in which triplicate transfections were performed. Error bars represent the standard error of the mean (SEM).
HepG2 cells were maintained in Modified Eagles Medium (MEM) (Life Technologies, Grand Island, N.Y.) plus 10% Fetal Calf Serum (FCS) (Life Technologies). Cells were plated in 24 well plates (coated with gelatin) 24 hours prior to transfection. DNA was introduced into the cells using Lipofectin (Life Technologies). Briefly, triplicate transfections were performed using 3 μg of total DNA. For standard transfections, 500 ng of pCMV-β-Gal (normalization vector), 1500 ng reporter (variable) and 1000 ng receptor (pRST7-hER (Dana et al, Mol. Endocrinol. 8:1193-1207 (1994)) were used for each triplicate. Incubation of the cells with Lipofectin proceeded for 3 hrs, at which time media was removed, cells were washed with PBS and then induced with the appropriate hormone diluted in phenol red-free media containing 10% charcoal stripped CS (Cyclone Inc.). Incubation with hormone continued for 48 hrs, after which cells were lysed and assayed for luciferase and β-galactosidase activity as previously described (Norris et al, JBC 270:22777-22782 (1995)).
A series of in vitro screens have been developed that permit the classification of ER-modulators into four mechanistically distinct groups (Tzukerman et al, Mol. Endocrinol. 8:21-30 (1994)). […] Using these assays, it has been possible to derive “fingerprints” of known ER-modulators (McDonnell et al, Mol. Endocrinol. 9:659-669 (1995)).
Subsequently, the transfected cells were assayed for luceriferase and β-galactosidase activity. Each data point in this experiment represents the average of triplicate determinations of the transcriptional activity under given experimental conditions.

- reversal of the inverse agonist activity of ICI182,780 (C3 promoter, co-addition with ICI182,780, FIG. 2C): partially reversed
- inhibition of the agonist activity manifested by tamoxifen or estradiol (ERwt, 10^−8M 17-β-estradiol or tamoxifen, FIG. 2A): inhibited
Structure (SMILES): CC/C(=C(\c1ccccc1)c1ccc(/C=C/C(=O)O)cc1)c1ccccc1 [GW5638]
- agonist / inverse agonist activity on the C3 promoter (ERwt, compound alone, FIG. 1A/2A): do not demonstrate any agonist or antagonist activity
